Calls of active or inactive are those of the source. The calls are words filed in the database; no cut-off is given here. Peptide text beside a SMILES is read from it.
How the values were obtained:
Candida albicans [1] = experiment: Antibiofilm activity against Candida albicans SC5314 assessed as inhibition of biofilm formation after 24 hrs by XTT-dye based assay; format: functional
BE(2)-C [2] = experiment: Induction of apoptosis in human BE(2)-C cells assessed as DNA damage at 2xIC50 after 24 hrs by SYTO9/PI-staining based inverted fluorescence microscopic analysis; format: functional, cell-based
HeLa [3] = experiment: Antiproliferative activity against human HeLa cells assessed as reduction in cell viability after 48 hrs by MTT assay; format: functional, cell-based
Candida albicans [4] = experiment: Antibiofilm activity against 24 hrs preformed biofilm of Candida albicans SC5314 assessed as biofilm cell eradication at 125 uM after 24 hrs by XTT assay relative to control; format: functional
HeLa [5] = experiment: Induction of ROS generation in human HeLa cells at 0.4 to 200 uM after 24 hrs in presence of ROS quencher, ascorbic acid by DCFH-DA staining based fluorescence analysis; format: functional, cell-based
HeLa [6] = experiment: Induction of apoptosis in human HeLa cells assessed as apoptotic cells at 2xIC50 after 24 hrs by Alexa flour 488 annexin V/PI- staining based flow cytometric analysis relative to control; format: functional
HeLa [7] = experiment: Synergistic antiproliferative activity against human HeLa cells assessed as FICI in presence of cisplatin after 48 hrs by MTT assay; format: functional
BE(2)-C [8] = experiment: Antiproliferative activity against human BE(2)-C cells assessed as cell viability at 10.3 uM in presence of 5.3 uM cisplatin after 48 hrs by MTT assay relative to control; format: functional
HeLa [9] = experiment: Antiproliferative activity against human HeLa cells assessed as cell viability at 10.2 uM in presence of 6.3 uM cisplatin after 48 hrs by MTT assay relative to control; format: functional
[10] = Hemolytic activity in mouse RBC at 500 uM after 1 hr relative to control; format: ADME, cell-based, Erythrocyte; details: red blood cells (erythrocytes), read-out: Activity
[11] = target: T1, 20S proteasome (Homo sapiens) (UniProt P49721+P20618+P28074+P28062+P28065+P28072+P25786+P25787+P25788+P25789+P28066+P60900+O14818+Q8TAA3+P40306+A5LHX3+P49720+P28070+Q99436); experiment: Inhibition of 20S proteasome in human BE(2)-C cells at 2xIC50 using LLVY-R110 peptide as substrate measured up to 36 hrs by fluorescence based assay; format: cell-based
BE(2)-C [12] = experiment: Induction of necrosis in human BE(2)-C cells at 2xIC50 after 24 hrs by Annexin-V alexa fluor 488/PI staining based fluorescence microscopic analysis; format: functional, cell-based
HeLa [13] = experiment: Induction of pore formation in human HeLa cell membrane at 2xIC50 after 12 hrs by SEM analysis; format: cell-based
HeLa [14] = experiment: Antiproliferative activity against human HeLa cells assessed as cell viability at 10.2 uM after 48 hrs by MTT assay relative to control; format: functional; details: read-out: Activity
BE(2)-C [15] = experiment: Induction of apoptosis in human BE(2)-C cells assessed as necrotic cells at 2xIC50 after 24 hrs by Alexa flour 488 annexin V/PI- staining based flow cytometric analysis relative to control; format: functional
HeLa [16] = experiment: Antiproliferative activity against human HeLa cells assessed as reduction in cell viability in presence of cisplatin after 48 hrs by MTT assay; format: functional, cell-based
HeLa [17] = experiment: Induction of ROS generation in human HeLa cells at 2xIC50 by DCFH-DA staining based fluorescence analysis; format: functional, cell-based; details: TDE = time-dependent effect
BE(2)-C [18] = experiment: Induction of ROS generation in human BE(2)-C cells at 2xIC50 measured up to 24 hrs in presence of ROS quencher, ascorbic acid by DCFH-DA staining based fluorescence analysis; format: functional, cell-based
[19] = target: T1, 20S proteasome (Homo sapiens); experiment: Potency index, ratio of ixazomib IC50 to compound IC50 for inhibition of human 20S proteasome using Suc-LLVY-AMC as substrate measured every 5 mins for 120 mins by fluorescence based assay; format: protein-complex assay
BE(2)-C [20] = experiment: Induction of apoptosis in human BE(2)-C cells assessed as apoptotic cells at 2xIC50 after 24 hrs by Alexa flour 488 annexin V/PI- staining based flow cytometric analysis relative to control; format: functional
BE(2)-C [21] = experiment: Antiproliferative activity against human BE(2)-C cells assessed as cell viability at 10.3 uM after 48 hrs by MTT assay relative to control; format: functional; details: read-out: Activity
BE(2)-C [22] = experiment: Induction of membrane disruption in human BE(2)-C cells assessed as membrane lysis at 2xIC50 after 24 hrs by SYTO9/PI-staining based inverted fluorescence microscopic analysis; details: Cell membrane
BE(2)-C [23] = experiment: Antiproliferative activity against human BE(2)-C cells assessed as cell viability at 4.7 uM after 48 hrs by MTT assay relative to control; format: functional; details: read-out: Activity
HeLa [24] = experiment: Antiproliferative activity against human HeLa cells assessed as cell viability at 4.7 uM after 48 hrs by MTT assay relative to control; format: functional; details: read-out: Activity
Candida albicans [25] = experiment: Antibiofilm activity against 24 hrs preformed biofilm of Candida albicans SC5314 assessed as biofilm cell eradication at 62.5 uM after 24 hrs by XTT assay relative to control; format: functional
BE(2)-C [26] = experiment: Antiproliferative activity against human BE(2)-C cells assessed as cell viability at 4.7 uM in presence of 5.3 uM cisplatin after 48 hrs by MTT assay relative to control; format: functional
HeLa [27] = experiment: Antiproliferative activity against human HeLa cells assessed as cell viability at 4.7 uM in presence of 6.3 uM cisplatin after 48 hrs by MTT assay relative to control; format: functional

CC(=O)N[C@@H](Cc1ccc(O)cc1)C(=O)NCC(=O)N[C@@H](CCCNC(=N)N)C(=O)N[C@@H](CCCCN)C(=O)N[C@@H](CCCCN)C(=O)N[C@@H](CCCNC(=N)N)C(=O)N[C@@H](CCCNC(=N)N)C(=O)N[C@@H](CCC(N)=O)C(=O)N[C@@H](CCCNC(=N)N)C(=O)N[C@@H](CCCNC(=N)N)C(=O)N[C@@H](CCCNC(=N)N)C(=O)NCC(=O)NCC(=O)NCC(=O)N[C@@H](CC(C)C)C(=O)N[C@@H](CC(C)C)C(=O)N[C@H](C=O)CC(C)C (Ac-YGRKKRRQRRRGGGLLL-aldehyde)
MBIC (Candida albicans [1]): 15.6 µM
Activity (BE(2)-C [2]): Active
IC50 (HeLa [3]): 10.2 µM
Activity (Candida albicans [4]): >50%
Activity (HeLa [5]): inactive
Activity (HeLa [6]): 72.9%
fractional inhibitory concentration index (FICI) (HeLa [7]): 0.34
Activity (BE(2)-C [8]): 13%
Activity (HeLa [9]): 14%
hemolysis at 1 h, 500 µM [10]: 1%
inhibition [11]: Active
Activity (BE(2)-C [12]): Active
Activity (HeLa [13]): Active
viability at 10.2 µM (HeLa [14]): 52%
Activity (BE(2)-C [15]): 64.9%
IC50 (HeLa [16]): 1.9 µM
Activity (HeLa [17]): Tde
Activity (BE(2)-C [18]): inactive
Ratio IC50 [19]: 6
Activity (BE(2)-C [20]): 27.2%
viability at 10.3 µM (BE(2)-C [21]): > 50%
Activity (BE(2)-C [22]): Active

CC(=O)N[C@@H](Cc1ccc(O)cc1)C(=O)NCC(=O)N[C@@H](CCCNC(=N)N)C(=O)N[C@@H](CCCCN)C(=O)N[C@@H](CCCCN)C(=O)N[C@@H](CCCNC(=N)N)C(=O)N[C@@H](CCCNC(=N)N)C(=O)N[C@@H](CCC(N)=O)C(=O)N[C@@H](CCCNC(=N)N)C(=O)N[C@@H](CCCNC(=N)N)C(=O)N[C@@H](CCCNC(=N)N)C(=O)NCC(=O)NCC(=O)NCC(=O)N[C@@H](Cc1ccc(O)cc1)C(=O)N[C@@H](CC(C)C)C(=O)N[C@@H](Cc1ccccc1)C(=O)N[C@H](C=O)CC(C)C (Ac-YGRKKRRQRRRGGGYLFL-aldehyde)
viability at 4.7 µM (BE(2)-C [23]): > 50%
viability at 4.7 µM (HeLa [24]): > 50%
MBIC (Candida albicans [1]): 7.8 µM
Activity (BE(2)-C [2]): Active
Activity (Candida albicans [25]): >50%
IC50 (HeLa [3]): 4.7 µM
Activity (HeLa [5]): inactive
Activity (HeLa [6]): 80.5%
fractional inhibitory concentration index (FICI) (HeLa [7]): 0.33
Activity (BE(2)-C [26]): 11%
hemolysis at 1 h, 500 µM [10]: 12%
inhibition [11]: Active
Activity (BE(2)-C [12]): Active
Activity (HeLa [13]): Active
Activity (HeLa [27]): 18%
Activity (BE(2)-C [15]): 65.4%
IC50 (HeLa [16]): 1.16 µM
Activity (HeLa [17]): Tde
Activity (BE(2)-C [18]): inactive
Ratio IC50 [19]: 4
Activity (BE(2)-C [20]): 28.3%
Activity (BE(2)-C [22]): Active

From ChEMBL document CHEMBL4354831, “Novel Cell-Penetrating Peptide Conjugated Proteasome Inhibitors: Anticancer and Antifungal Investigations” (J Med Chem, 2020)
